Experimental data reported in patent publication US6861409B2, “Growth hormone secretagogues” (Zentaris AG, priority 2000, dated 2005).

How the values were obtained:
plasma GH concentrations = test: Growth hormone releasing activity in the infant rat (plasma GH by RIA); type: in vivo, Sprague Dawley rats; settings: Table 1 test series; male 10-day-old rats; 300 μg/kg subcutaneously; plasma 15 min later
Description: Male 10-day-old Sprague Dawley rats, about 25 g body weight were used.
One hour before the experiments, pups were separated from their respective dams and were divided randomly into groups of eight each.
Pups were acutely challenged subcutaneously with 100 μl of solvent (DMSO, final dilution 1:300 in physiological saline), hexarelin (Tyr-Ala-His-D-Mrp-Ala-Trp-D-Phe-Lys-NH2, used as a reference drug), or new compounds (300 μg/kg) and killed by decapitation 15 min later.
Trunk blood was collected and centrifuged immediately. Plasma samples were stored at −20° C. until assayed for the determination of plasma GH concentrations.
Growth hormone concentrations in plasma were measured by RIA using materials provided by the National Institute of Diabetes, Digestive and Kidney Diseases (NIDDK) of the National Institute of Health U.S.A.
Values were expressed in terms of the NIDDK-rat-GH-RP-2 standard (potency 21 U/mg) as ng/ml of plasma.
The minimum detectable value of rat GH was about 1.0 ng/ml, and intraassay variability was about 6%.

Concentration GH = test: Time dependence of the oral activity in the dog (plasma GH); type: in vivo, dog (beagles); design: AUC (Area under the curve) of GH concentration: unit not given here; settings: 1 mg/kg per os
Description: Furthermore the time dependence of the oral activity in the dog (1 mg/kg; per os) was estimated for example 1 (H-Aib-D-Trp-D-gTrp-CHO). Well-trained beagles of either sex, >10 year, 10-15 kg by weight, were used. Animals were fed normal dry food with water ad libitum and were on a 12 h-light/12 h-dark regimen with on at 7.00. The compound was administered orally to the dogs which had fasted since 16.00 of the preceding day. Blood samples were taken 20 min before administration, at administration and 15, 30, 60, 90, 120 and 180 min after administration.

CC(C)(N)C(=O)N[C@H](Cc1c[nH]c2ccccc12)C(=O)N[C@H](Cc1c[nH]c2ccccc12)NC=O [Example 1, H-Aib-D-Trp-D-gTrp-CHO]
GH (plasma GH concentrations): 158.8 ± 39.4 ng/mL | AUC (Area under the curve) of GH concentration (Concentration GH; MEAN VALUE of 6 dogs): 675.35 | Concentration GH (Concentration GH; MEAN VALUE of 6 dogs, t 0 min (at administration)): 1.79 ng/mL | Concentration GH (Concentration GH; MEAN VALUE of 6 dogs, t 15 min after administration): 5.32 ng/mL | Concentration GH (Concentration GH; MEAN VALUE of 6 dogs, t 30 min after administration): 5.5 ng/mL | Concentration GH (Concentration GH; MEAN VALUE of 6 dogs, t 60 min after administration): 3.52 ng/mL | Concentration GH (Concentration GH; MEAN VALUE of 6 dogs, t 90 min after administration): 3.59 ng/mL | Concentration GH (Concentration GH; MEAN VALUE of 6 dogs, t 120 min after administration): 3.42 ng/mL | Concentration GH (Concentration GH; MEAN VALUE of 6 dogs, t 180 min after administration): 3.04 ng/mL | Concentration GH (Concentration GH; MEAN VALUE of 6 dogs, t −20 min (before administration)): 2.07 ng/mL | AUC (Area under the curve) of GH concentration (Concentration GH; dog DAKOTA): 328.53 | Concentration GH (Concentration GH; dog DAKOTA, t 0 min (at administration)): 0.35 ng/mL | Concentration GH (Concentration GH; dog DAKOTA, t 15 min after administration): 2.11 ng/mL | Concentration GH (Concentration GH; dog DAKOTA, t 30 min after administration): 0.54 ng/mL | Concentration GH (Concentration GH; dog DAKOTA, t 60 min after administration): 0.17 ng/mL | Concentration GH (Concentration GH; dog DAKOTA, t 90 min after administration): 0.4 ng/mL | Concentration GH (Concentration GH; dog DAKOTA, t 120 min after administration): 3.58 ng/mL | Concentration GH (Concentration GH; dog DAKOTA, t 180 min after administration): 3.46 ng/mL | Concentration GH (Concentration GH; dog DAKOTA, t −20 min (before administration)): 0.48 ng/mL | AUC (Area under the curve) of GH concentration (Concentration GH; dog FORREST LEE): 888.91 | Concentration GH (Concentration GH; dog FORREST LEE, t 0 min (at administration)): 2.01 ng/mL | Concentration GH (Concentration GH; dog FORREST LEE, t 15 min after administration): 6.38 ng/mL | Concentration GH (Concentration GH; dog FORREST LEE, t 30 min after administration): 8.48 ng/mL | Concentration GH (Concentration GH; dog FORREST LEE, t 60 min after administration): 4.41 ng/mL | Concentration GH (Concentration GH; dog FORREST LEE, t 90 min after administration): 6.42 ng/mL | Concentration GH (Concentration GH; dog FORREST LEE, t 120 min after administration): 3.71 ng/mL | Concentration GH (Concentration GH; dog FORREST LEE, t 180 min after administration): 3.18 ng/mL | Concentration GH (Concentration GH; dog FORREST LEE, t −20 min (before administration)): 1.43 ng/mL | AUC (Area under the curve) of GH concentration (Concentration GH; dog JORMA): 658.38 | Concentration GH (Concentration GH; dog JORMA, t 0 min (at administration)): 2.75 ng/mL | Concentration GH (Concentration GH; dog JORMA, t 15 min after administration): 8.91 ng/mL | Concentration GH (Concentration GH; dog JORMA, t 30 min after administration): 6.85 ng/mL | Concentration GH (Concentration GH; dog JORMA, t 60 min after administration): 2.65 ng/mL | Concentration GH (Concentration GH; dog JORMA, t 90 min after administration): 2.47 ng/mL | Concentration GH (Concentration GH; dog JORMA, t 120 min after administration): 2.48 ng/mL | Concentration GH (Concentration GH; dog JORMA, t 180 min after administration): 2.82 ng/mL | Concentration GH (Concentration GH; dog JORMA, t −20 min (before administration)): 3.58 ng/mL | AUC (Area under the curve) of GH concentration (Concentration GH; dog MARKUS): 944.26 | Concentration GH (Concentration GH; dog MARKUS, t 0 min (at administration)): 2.55 ng/mL | Concentration GH (Concentration GH; dog MARKUS, t 15 min after administration): 6.11 ng/mL | Concentration GH (Concentration GH; dog MARKUS, t 30 min after administration): 6.9 ng/mL | Concentration GH (Concentration GH; dog MARKUS, t 60 min after administration): 6.51 ng/mL | Concentration GH (Concentration GH; dog MARKUS, t 90 min after administration): 5.18 ng/mL | Concentration GH (Concentration GH; dog MARKUS, t 120 min after administration): 4.54 ng/mL | Concentration GH (Concentration GH; dog MARKUS, t 180 min after administration): 4.12 ng/mL | Concentration GH (Concentration GH; dog MARKUS, t −20 min (before administration)): 2.45 ng/mL | AUC (Area under the curve) of GH concentration (Concentration GH; dog RAZ DEGAN): 510.64 | Concentration GH (Concentration GH; dog RAZ DEGAN, t 0 min (at administration)): 1.64 ng/mL | Concentration GH (Concentration GH; dog RAZ DEGAN, t 15 min after administration): 3.58 ng/mL | Concentration GH (Concentration GH; dog RAZ DEGAN, t 30 min after administration): 6.37 ng/mL | Concentration GH (Concentration GH; dog RAZ DEGAN, t 60 min after administration): 3.02 ng/mL | Concentration GH (Concentration GH; dog RAZ DEGAN, t 90 min after administration): 2.61 ng/mL | Concentration GH (Concentration GH; dog RAZ DEGAN, t 120 min after administration): 1.94 ng/mL | Concentration GH (Concentration GH; dog RAZ DEGAN, t 180 min after administration): 1.49 ng/mL | Concentration GH (Concentration GH; dog RAZ DEGAN, t −20 min (before administration)): 2.14 ng/mL | AUC (Area under the curve) of GH concentration (Concentration GH; dog TAYLOR): 721.34 | Concentration GH (Concentration GH; dog TAYLOR, t 0 min (at administration)): 1.41 ng/mL | Concentration GH (Concentration GH; dog TAYLOR, t 15 min after administration): 4.8 ng/mL | Concentration GH (Concentration GH; dog TAYLOR, t 30 min after administration): 3.89 ng/mL | Concentration GH (Concentration GH; dog TAYLOR, t 60 min after administration): 4.34 ng/mL | Concentration GH (Concentration GH; dog TAYLOR, t 90 min after administration): 4.43 ng/mL | Concentration GH (Concentration GH; dog TAYLOR, t 120 min after administration): 4.28 ng/mL | Concentration GH (Concentration GH; dog TAYLOR, t 180 min after administration): 3.18 ng/mL | Concentration GH (Concentration GH; dog TAYLOR, t −20 min (before administration)): 2.32 ng/mL
